What all share (type): cell-based
The test system of assay [1] is T47D. Put plainly: Colony formation / survival assay, T47D. Here is the method:
(§1) Colony Formation or Survival Asasys: Cells were seeded in 12-well plates in triplicates at a density of 600 cells per well for MCF7 and 800 cells per well for T47D cells. Cells were treated after overnight incubated. Medium was changed every 3-4 days until cluster of colonies were formed. The plates were incubated for 7 days for MCF7 cells and xx days for T47D cells. Colonies in the plate were fixed and stained with Formaldehyde (1.0% v/v), Methanol (1%) and crystal violet (1% w/v) for xx min; thoroughly washed with water and air dry and counted using with automated colony counter (Gel counter. OXFORD OPTRONIC Inc). Results are present as average colony count ±SD.
(§2) Impact on cell growth can also be evaluated in colony survival assays. To evaluate the effect of compound (I-1) on colony survival, MCF7 and T47D were plated at low density and treated with several doses of compound (I-1) alone and in combination with fulvestrant. The number of colonies formed after 7 days in culture was evaluated (FIG. 9). […] In the presence of fulvestrant, colony number was reduced 73%, and 20 nM compound (I-1) further reduced colony number by 92%. […] In the presence of fulvestrant, colony number was reduced 41%.

In assay [2] the test system is T47D. Put plainly: Cell viability assay (Cell Titer-Glo), T47D. The settings on record: for EC50: Homo sapiens, 96 hours. Here is the method: (§3) The cell viability was determined using the Cell Titer-Glo luminescent cell viability assay, according to the manufacturer's instructions. Luminescence was measured using a PHERAstar FS microplate reader (BMG LABTECH, German). The half-maximal inhibitory concentration (IC50) values were calculated using the prism plot software. The effects of treatments were measured by conducting three independent experiments.
(ATP-based viability assays read luminescence as a measure of living cells.)

Assay [3] has as its system MCF7. Put plainly: Colony formation / survival assay, MCF7. The settings on record: 7 days. As for the experimental part: as §1, §2
Assay [4] concerns MCF7. Put plainly: Cell viability assay (Cell Titer-Glo), MCF7. The settings on record: for EC50: Homo sapiens, 72 hours. Here is the method:
as §3

Assay [5] has as its system ER targets GREB1, MYC, and PGR. Put plainly: Protein expression of ER targets in MCF7 and T47D (FIG. 1). The settings on record: 24 hours. An excerpt: (§4) ER, when bound by estrogen or […] such as fulvestrant, undergoes a conformational change that promotes ubiquitination and degradation of the receptor.
The subject of a further assay is ER. Put plainly: ER protein expression in MCF7 and T47D (FIG. 1). The settings on record: 24 hours.
From the text: as §4

The mark [6] stands for this setting: 20 nM compound (I-1) in the presence of fulvestrant.
The mark [7] stands for this setting: compound (I-1) alone, read-out: average EC50, cell viability.
[8] abbreviates: in the presence of fulvestrant, read-out: EC50, cell viability.
Where [9] appears, read: single agent fulvestrant treatment.

From patent US20180153868A1, “TREATMENT OF BREAST CANCER BY CONCOMITANT ADMINISTRATION OF A BROMODOMAIN INHIBITOR AND A SECOND AGENT” (Gilead Sciences, Inc., priority 2016, published 2018) come the findings set out here.

Molecules are shown by their SMILES. Read-outs that look alike come from different tables or passages of the source.

Regarding `Cc1noc(C)c1-c1cc(C(O)(c2ccccn2)c2ccccn2)c2nc(C3CC3)[nH]c2c1` [compound (I-1), (2-cyclopropyl-6-(3,5-dimethylisoxazol-4-yl)-1H-benzo[d]imidazol-4-yl)di(pyridin-2-yl)methanol], the “effect on colony number” value in the assay with T47D [1] (20 nM compound (I-1) alone) and in the assay on T47D [1] (setting [6]) was “no significant effect” in each case. Moreover, the reduced colony number with T47D [1] (60 nM compound (I-1) alone) stood at 53%; in the assay with T47D [1] (120 nM compound (I-1) alone), 60%; with MCF7 [3] (20 nM compound (I-1) alone) it was 48%. Also, the “further reduced colony number” value in the assay with T47D [1] (60 nM compound (I-1) in the presence of fulvestrant) was determined as 66%; with T47D [1] (120 nM compound (I-1) in the presence of fulvestrant), 78%; in the assay with MCF7 [3] (setting [6]) it was 92%. Moreover, the EC50 (as a rule, the concentration giving half of the maximal effect) with T47D [2] (setting [7]) turned out to be 0.0953 ± 0.0165 µM; in the assay with T47D [2] (setting [8]) it was 0.064 ± 0.005 µM; with MCF7 [4] (setting [7]), 0.0613 ± 0.0084 µM; with MCF7 [4] (setting [8]), 0.025 ± 0.0106 µM. Besides, the “increase in potency (EC50 alone vs in combination with fulvestrant)” value stood at 1.5 fold in the assay on T47D [2] (p value 0.0030) and 2.5 fold with MCF7 [4] (p value 0.00027). The effect on colonies entry in the assay on MCF7 [3] (60 nM compound (I-1) alone) and in the assay with MCF7 [3] (120 nM compound (I-1) alone) was “nearly all colonies eliminated” throughout. The “ER target (GREB1, MYC, PGR) expression” value in assay [5] (addition of 50 or 100 nM compound (I-1)) is recorded as “consistently reduced target expression”. In assay [5] (combination of fulvestrant and compound (I-1)), the “ER target (GREB1, MYC, PGR) protein reduction” value is reported as “most pronounced protein reduction”. In the assay on ER (100 or 50 nM compound (I-1) added under estrogen or fulvestrant treatments), the ER protein expression result is “further reduced ER protein expression”.

On to `C[C@]12CC[C@@H]3c4ccc(O)cc4C[C@@H](CCCCCCCCC[S+]([O-])CCCC(F)(F)C(F)(F)F)[C@H]3[C@@H]1CC[C@@H]2O` (stereo partly shown) [fulvestrant, reference compound], for which the colony number reduced in the assay on T47D [1] (fulvestrant alone) is 41%; with MCF7 [3] (fulvestrant alone) it was 73%. The “reduced growth (average)” value with T47D [2] (setting [9]) was 35.8±5.0%; with MCF7 [4] (setting [9]), 47.0±19.6%. Besides, the “estrogen induction of GREB1, MYC, PGR protein expression” value in assay [5] (in the presence of fulvestrant (12 nM)) was “significantly reduced”. The ER protein levels entry with ER (12 nM Fulvestrant) is listed as “reduced ER protein levels”.
